Values quoted from earlier work as cited in US20020035037A1, “CONTROL OF SCLEROTIUM CEPIVORUM IN ALLIUM PLANTS” (priority 1991, published 2002).

Tested on: Sclerotium cepivorum
Conditions: iprodione 125 g/kg seed as seed treatment; procymidon 4-6 kg/ha as soil treatment; particularly with heavy infestation

| SMILES | effectiveness of control of Sclerotium cepivorum |
| --- | --- |
| CC(C)NC(=O)N1CC(=O)N(c2cc(Cl)cc(Cl)c2)C1=O [iprodione] | not effective |
| CC12CC1(C)C(=O)N(c1cc(Cl)cc(Cl)c1)C2=O (centres unmarked) [procymidon] | not effective |
